Experiment: solvent given as SMILES
[1] = in CCCCCCCCC=CCCCCCCCC(=O)OCC(COC(=O)CCCCCCCC=CCCCCCCCC)OC(=O)CCCCCCCC=CCCCCCCCC

CC(C)c1ccccc1
solvation free energy, 298 K (in C1CCOC1): -6.5 kcal/mol | solvation free energy, 298 K (in CC#N): -5.53 kcal/mol | solvation free energy, 298 K (in CC(C)=O): -5.89 kcal/mol | solvation free energy, 298 K (in CC(C)O): -5.21 kcal/mol | solvation free energy, 298 K (in CCCCCCC): -5.72 kcal/mol | solvation free energy, 298 K (in CCCCCCCCO): -5.43 kcal/mol | solvation free energy, 298 K (in CO): -5.18 kcal/mol | solvation free energy, 298 K (in NC=O): -3.38 kcal/mol | solvation free energy, 298 K (in O): -0.34 kcal/mol | solvation free energy, 298 K (in O=CN1CCOCC1): -5.28 kcal/mol | solvation free energy, 298 K (in OCCO): -3.54 kcal/mol | solvation free energy, 298 K (in OCCOCCO): -4.43 kcal/mol | solvation free energy, 298 K (in OCCOCCOCCO): -4.56 kcal/mol

ClCCOCCCl
solvation free energy, 298 K (in O): -4.23 kcal/mol

Clc1cc(Cl)c(Cl)c(Cl)c1Cl
solvation free energy, 298 K [1]: -8.79 kcal/mol | solvation free energy, 298 K (in CCCCCCCCO): -8.85 kcal/mol | solvation free energy, 298 K (in O): -1.69 kcal/mol

Cc1ccc(C(C)C)cc1
solvation free energy, 298 K (in COCCO): -5.72 kcal/mol | solvation free energy, 298 K (in CS(C)=O): -5.55 kcal/mol | solvation free energy, 298 K (in O): -0.67 kcal/mol

CCCCCC(C)O (stereo not given)
solvation free energy, 298 K (in O): -3.88 kcal/mol

O=C(Oc1ccccc1)Oc1ccccc1
solvation free energy, 298 K (in CC(C)CO): -11.2 kcal/mol | solvation free energy, 298 K (in CC(C)O): -11.3 kcal/mol | solvation free energy, 298 K (in CCC(C)O): -11.2 kcal/mol | solvation free energy, 298 K (in CCCCO): -11.4 kcal/mol | solvation free energy, 298 K (in CCCO): -11.5 kcal/mol | solvation free energy, 298 K (in CCO): -11.6 kcal/mol | solvation free energy, 298 K (in CO): -11.8 kcal/mol

CC(C)Cc1ccccc1
solvation free energy, 298 K (in O): 0.19 kcal/mol

CCCCCCO
solvation free energy, 298 K (in Brc1ccccc1): -5.98 kcal/mol | solvation free energy, 298 K (in C1CCOC1): -7.42 kcal/mol | solvation free energy, 298 K (in CC#N): -6.44 kcal/mol | solvation free energy, 298 K (in CC(C)CC(C)(C)C): -5.1 kcal/mol | solvation free energy, 298 K (in CC(C)O): -7.54 kcal/mol | solvation free energy, 298 K (in CCC(C)=O): -6.96 kcal/mol | solvation free energy, 298 K (in CCCCCC): -5.02 kcal/mol | solvation free energy, 298 K (in CCCCCCC): -5.27 kcal/mol | solvation free energy, 298 K (in CCCCCCCC): -4.99 kcal/mol | solvation free energy, 298 K (in CCCCCCCCCC): -4.99 kcal/mol | solvation free energy, 298 K (in CCCCCCCCCCCCCCCC): -4.89 kcal/mol | solvation free energy, 298 K (in CCCCCCCCCCO): -6.99 kcal/mol | solvation free energy, 298 K (in CCCCCCCCO): -7.06 kcal/mol | solvation free energy, 298 K (in CCCCCl): -5.99 kcal/mol | solvation free energy, 298 K (in CCCCOC(C)=O): -6.83 kcal/mol | solvation free energy, 298 K (in CCCOCCC): -6.31 kcal/mol | solvation free energy, 298 K (in Cc1ccccc1C): -5.91 kcal/mol | solvation free energy, 298 K (in NC=O): -6.04 kcal/mol | solvation free energy, 298 K (in O): -4.4 kcal/mol | solvation free energy, 298 K (in [2H]O[2H]): -4.57 kcal/mol

CC(=O)C(C)=O
solvation free energy, 298 K (in O): -4.3 kcal/mol

C1CO1
solvation free energy, 298 K (in O): -2.87 kcal/mol

CC(C)(C)OC(=O)c1ccccc1C(=O)OC(C)(C)C
solvation free energy, 298 K (in O): -7.09 kcal/mol

Cc1c[nH]cn1
solvation free energy, 298 K (in O): -10.3 kcal/mol

Cc1cccc(C)c1C
solvation free energy, 298 K (in O): -1.15 kcal/mol

C1CCCNCC1
solvation free energy, 298 K (in C1CCCCC1): -5.66 kcal/mol

O=C(O)c1ccc(I)cc1
solvation free energy, 298 K (in CN(C)C=O): -14 kcal/mol | solvation free energy, 298 K (in O): -7.96 kcal/mol

CCCCC(=O)OCC
solvation free energy, 298 K (in O): -2.49 kcal/mol

CCCCCCCCC=CCCCCCCCCCCCC(=O)OC
solvation free energy, 298 K (in O): -1.09 kcal/mol

C=CC=CC=C
solvation free energy, 298 K (in C=CCCCCCCCCCCCCCC): -3.78 kcal/mol | solvation free energy, 298 K (in O): 0.2 kcal/mol

CC(F)(Cl)Cl
solvation free energy, 298 K (in CCCCCCCC(=O)OCC(COC(=O)CCCCCCC)OC(=O)CCCCCCC): -2.89 kcal/mol

NC1CCCCC1
solvation free energy, 298 K (in C1CCCCC1): -5.47 kcal/mol

Cc1ccc(C)c2ccccc12
solvation free energy, 298 K (in O): -2.82 kcal/mol

CCC=CCCC=O
solvation free energy, 298 K (in O): -3.19 kcal/mol

CC(Cl)(Cl)Cl
solvation free energy, 298 K (in C1CCOC1): -4.35 kcal/mol | solvation free energy, 298 K (in CC(=O)CC(C)C): -4.28 kcal/mol | solvation free energy, 298 K (in CC(C)=O): -4.23 kcal/mol | solvation free energy, 298 K (in CC(C)O): -3.56 kcal/mol | solvation free energy, 298 K (in CCCCCCCCCCCCCC): -3.61 kcal/mol | solvation free energy, 298 K (in CCCCCCCCCCCCCCCC): -3.67 kcal/mol | solvation free energy, 298 K (in CCCCCCCCN(CCCCCCCC)CCCCCCCC): -3.63 kcal/mol | solvation free energy, 298 K (in CCCCCCCCO): -3.67 kcal/mol | solvation free energy, 298 K (in CCCCCN(CCCCC)CCCCC): -3.78 kcal/mol | solvation free energy, 298 K (in CCCCCl): -4.32 kcal/mol | solvation free energy, 298 K (in CCCCN(CCCC)CCCC): -3.69 kcal/mol | solvation free energy, 298 K (in CCCCOCCCC): -4.08 kcal/mol | solvation free energy, 298 K (in CCCO): -3.94 kcal/mol | solvation free energy, 298 K (in CCOCC): -4.13 kcal/mol | solvation free energy, 298 K (in ClC(Cl)(Cl)Cl): -4.24 kcal/mol | solvation free energy, 298 K (in ClC(Cl)Cl): -4.42 kcal/mol | solvation free energy, 298 K (in ClCCCl): -4.24 kcal/mol | solvation free energy, 298 K (in [2H]O[2H]): -0.57 kcal/mol

CC(C)OC(=O)c1ccccc1C(=O)OC(C)C
solvation free energy, 298 K (in O): -7.42 kcal/mol

CC(C(=O)O)c1ccc2c(c1)[nH]c1ccc(Cl)cc12 (stereo not given)
solvation free energy, 298 K (in O): -15.1 kcal/mol

Clc1cc(Cl)c(-c2ccccc2)c(Cl)c1
solvation free energy, 298 K (in O): -2.16 kcal/mol

CCCCCC=O
solvation free energy, 298 K (in CCCCCCCC): -4.76 kcal/mol | solvation free energy, 298 K (in CCCCCCCCCCCCCCCC): -4.52 kcal/mol | solvation free energy, 298 K (in CCCCCCCCO): -5.95 kcal/mol | solvation free energy, 298 K (in NC=O): -4.02 kcal/mol | solvation free energy, 298 K (in O): -2.74 kcal/mol | solvation free energy, 298 K (in [2H]O[2H]): -2.75 kcal/mol

ClC1=C(Cl)C2(Cl)C3C4OC4C(Cl)C3C1(Cl)C2(Cl)Cl (stereo not given)
solvation free energy, 298 K [1]: -13 kcal/mol | solvation free energy, 298 K (in CCCCCCCCO): -11.7 kcal/mol

c1cc[nH]c1
solvation free energy, 298 K (in O): -4.78 kcal/mol

O=C(O)CCCCc1ccccc1
solvation free energy, 298 K (in O): -8.68 kcal/mol

CCC(C)Cl (stereo not given)
solvation free energy, 298 K (in C1CCOC1): -4.34 kcal/mol | solvation free energy, 298 K (in C1CCOCC1): -4.24 kcal/mol | solvation free energy, 298 K (in C1COCCO1): -4.08 kcal/mol | solvation free energy, 298 K (in C=CCCCCCCCCCCCCCC): -3.46 kcal/mol | solvation free energy, 298 K (in CC(C)OC(C)C): -3.95 kcal/mol | solvation free energy, 298 K (in CCCCCC): -3.84 kcal/mol | solvation free energy, 298 K (in CCCCCl): -4.16 kcal/mol | solvation free energy, 298 K (in COC(C)(C)C): -4.08 kcal/mol

CNc1ccccc1
solvation free energy, 298 K (in CCCCCCCCCCCCCCCC): -6.06 kcal/mol | solvation free energy, 298 K (in O): -4.69 kcal/mol

Clc1cccc(Cl)c1Cl
solvation free energy, 298 K (in CCCCCC): -6.92 kcal/mol | solvation free energy, 298 K [1]: -7.12 kcal/mol | solvation free energy, 298 K (in CCCCCCCCO): -7.08 kcal/mol | solvation free energy, 298 K (in O): -1.24 kcal/mol

CCOC(=O)CC(=O)OCC
solvation free energy, 298 K (in O): -6 kcal/mol

Cc1cc(Cl)c(Cl)cc1Cl
solvation free energy, 298 K [1]: -7.99 kcal/mol | solvation free energy, 298 K (in O): -1.05 kcal/mol

Cc1ccc(C=O)cc1
solvation free energy, 298 K (in O): -4.27 kcal/mol

CCCCCC(=O)O
solvation free energy, 298 K (in O): -6.11 kcal/mol

Clc1ccc(-c2ccccc2)cc1
solvation free energy, 298 K [1]: -9.7 kcal/mol | solvation free energy, 298 K (in CCCCCCCCO): -9.25 kcal/mol | solvation free energy, 298 K (in O): -2.44 kcal/mol

CC1=CCC2C(C1)C2(C)C (stereo not given)
solvation free energy, 298 K (in O): 0.79 kcal/mol

CBr
solvation free energy, 298 K (in O): -0.82 kcal/mol
